From patent publication US10149838B2, “Small molecule securinine and norsecurinine analogs and their use in inhibiting myeloperoxidase” (MiRx Pharmaceuticals, LLC, priority 2013, dated 2018)

The compounds below were run against T1, MPO (Homo sapiens, UniProt P05164) (assay: Myeloperoxidase Inhibitor Screening Assay Kit (Cayman Chemical), chlorination activity). Conditions: Table 1; MPO inhibitory activity.
T1 sequence (P05164 49-745): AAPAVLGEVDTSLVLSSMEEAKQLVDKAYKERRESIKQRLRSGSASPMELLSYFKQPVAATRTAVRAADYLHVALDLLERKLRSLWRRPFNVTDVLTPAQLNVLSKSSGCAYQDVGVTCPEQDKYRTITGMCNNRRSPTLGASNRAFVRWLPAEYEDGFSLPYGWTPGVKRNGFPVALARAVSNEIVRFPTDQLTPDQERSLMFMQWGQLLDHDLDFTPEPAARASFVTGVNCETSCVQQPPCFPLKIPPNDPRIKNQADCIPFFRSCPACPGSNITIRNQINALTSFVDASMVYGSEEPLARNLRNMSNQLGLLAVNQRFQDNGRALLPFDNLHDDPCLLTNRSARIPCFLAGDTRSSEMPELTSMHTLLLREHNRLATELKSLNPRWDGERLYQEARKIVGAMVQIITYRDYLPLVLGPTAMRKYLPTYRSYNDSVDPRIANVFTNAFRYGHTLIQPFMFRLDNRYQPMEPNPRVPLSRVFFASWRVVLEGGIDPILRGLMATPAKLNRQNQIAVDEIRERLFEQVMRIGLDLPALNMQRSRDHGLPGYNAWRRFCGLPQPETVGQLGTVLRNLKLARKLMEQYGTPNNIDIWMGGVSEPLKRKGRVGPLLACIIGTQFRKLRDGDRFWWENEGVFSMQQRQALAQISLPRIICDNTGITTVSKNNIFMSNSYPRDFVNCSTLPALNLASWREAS
Type: biochemical
Set-up: purchased Cayman Chemical 700170; concentration or dose not given beside the values
Protocol: The columns are represented as follows: A: Blank; B: Commercial inhibitor; C; Another commercial inhibitor (sc-204107); D: Securinine; E: INVS-MG-98B, F: 14-Iodosecurinine; G; INVS-MG-106B.
The analogs described herein were contacted against MPO and the biological activity was assessed. Tables 1 and 2 show representative biological activity examples and that the listed compounds are potent inhibitors of MPO, specifically that the analogs inhibit chlorination activity. The compounds were tested for MPO inhibitory activity using the Myeloperoxidase Inhibitor Screening Assay Kit (Cayman Chemical Cat #700170) as described in the manufacturers manual
Studies were then aimed at establishing dose dependent relative chlorination activity results of securinine and norsecurinine analogs. As depicted in FIG. 4, the analogs of the present invention were extremely potent in inhibiting chlorination.

In order of rising “% Activity” value:
1. O=C1C=C2CC(SC34CC5CC(CC(C5)C3)C4)[C@@H]3C[C@@]2(O1)[C@H]1CCCCN31 (stereo partly shown) [4A]  1%
2. O=C1C=C2CC(NC3CCCCCC3)[C@@H]3C[C@@]2(O1)[C@H]1CCCCN31 (stereo partly shown) [29A]  1%
3. CC(C)CS[C@H]1CC2=CC(=O)O[C@@]23C[C@@H]1N1CCCC[C@@H]13 (stereo in doubt) [57B]  2%
4. CCCN(CC#CC1=C[C@@H]2C[C@@]3(OC(=O)C=C13)[C@H]1CCCCN21)CCC [152A]  18%
5. CCCSC1CC2=CC(=O)O[C@@]23C[C@@H]1N1CCCC[C@@H]13 (stereo partly shown) [58C]  30%
6. CCN(CC)CCSC1CC2=CC(=O)O[C@@]23C[C@@H]1N1CCCC[C@@H]13 (stereo partly shown) [21B]  30%
7. O=C(CCCC[C@@H]1SC[C@@H]2NC(=O)N[C@@H]21)NCCS[C@H]1CC2=CC(=O)O[C@@]23C[C@@H]1N1CCCC[C@@H]13 [SEC- BIO]  32%
8. CCCCCCCSC1CC2=CC(=O)O[C@@]23C[C@@H]1N1CCCC[C@@H]13 (stereo partly shown) [19A]  38%
9. O=C1C=C2CC(NC3CCCC3)[C@@H]3C[C@@]2(O1)[C@H]1CCCCN31 (stereo partly shown) [27B]  46%
10. O=C1C=C2CC(N3CCC(F)(F)C3)[C@@H]3C[C@@]2(O1)[C@H]1CCCCN31 (stereo partly shown) [9A]  46%
11. O=C1C=C2C(C#Cc3cccs3)=C[C@@H]3C[C@@]2(O1)[C@H]1CCCCN31 [170B]  64%
12. COc1cc(C#CC2=C[C@@H]3C[C@@]4(OC(=O)C=C24)[C@H]2CC[C@H](C(OC)OC)N32)cc(OC)c1 [222B]  70%
13. O=C1C=C2CC(NC3CCCCCCC3)[C@@H]3C[C@@]2(O1)[C@H]1CCCCN31 (stereo partly shown) [30A]  78%
14. O=C1CC2(SCC(F)(F)F)CC(SCC(F)(F)F)[C@@H]3C[C@@]2(O1)[C@H]1CCCCN31 (stereo partly shown) [5A]  78%
15. COc1ccc2cc(C#CC3=C[C@@H]4C[C@@]5(OC(=O)C=C35)[C@H]3CCCCN43)ccc2c1 [157B]  80%
16. O=C1C=C2CC(NC3CC3)[C@@H]3C[C@@]2(O1)[C@H]1CCCCN31 (stereo partly shown) [26A]  83%
17. O=C1C=C2C[C@H](SCC(F)(F)F)[C@@H]3C[C@@]2(O1)[C@H]1CCCCN31 (stereo in doubt) [5B]  83%
18. O=C1C=C2CC(SCc3cccs3)[C@@H]3C[C@@]2(O1)[C@H]1CCCCN31 (stereo partly shown) [INVS-MG-14B]  83%
19. CC(C)CSC1CC2=CC(=O)O[C@@]23C[C@@H]1N1CCCC[C@@H]13 (stereo in doubt) [57A]  86%
20. O=C1C=C2CC(NC3CCCCC3)[C@@H]3C[C@@]2(O1)[C@H]1CCCCN31 (stereo partly shown) [28B]  86%
21. O=C1C=C2CC(SCC3CCCCCC3)[C@@H]3C[C@@]2(O1)[C@H]1CCCCN31 (stereo partly shown) [16A]  91%
22. CO[C@H]1CC2=CC(=O)O[C@@]23C[C@@H]1N1CCCC[C@@H]13 [97-IIB]  97%
23. CC(C)SC1CC2=CC(=O)O[C@@]23C[C@@H]1N1CCCC[C@@H]13 (stereo partly shown) [37B]  97%
24. C#CC1=C[C@@H]2C[C@@]3(OC(=O)C=C13)[C@H]1CCCCN21 [207A]  99%
25. O=C1C=C2CC(NC3CC(O)C3)[C@@H]3C[C@@]2(O1)[C@H]1CCCCN31 (stereo partly shown) [46B]  99%
26. O=C1C=C2CC(NCC3CC3)[C@@H]3C[C@@]2(O1)[C@H]1CCCCN31 (stereo partly shown) [25B]  99%
27. NCCSC1CC2=CC(=O)O[C@@]23C[C@@H]1N1CCCC[C@@H]13 (stereo partly shown) [compound 105]  99%

These compounds were tested on some cell lines (assay: MTT cell survival assay (Roche), cell lines not specified). Conditions: cell culture conditions.
Type: cell-based
Description: The securinine analog MPO inhibitors have favorable in vitro and in vivo toxicity profiles.

With `O=C1C=C2C=C[C@@H]3C[C@@]2(O1)[C@H]1CCCCN31` [MA1] the “in vitro toxicity (cell survival)” value was “higher toxicity effect on some cell lines”.
